Source: the NIST ThermoML archive (doi:10.1016/j.fluid.2016.02.009)

Settings: Liquid, Vibrating tube method

CCCCOC [butyl methyl ether]
Settings	mass density [kg/m3]
283.15 K, 100 kPa	755.88
283.15 K, 5000 kPa	760.82
283.15 K, 10000 kPa	765.42
283.15 K, 15000 kPa	769.77
283.15 K, 20000 kPa	773.91
283.15 K, 25000 kPa	777.86
283.15 K, 30000 kPa	781.65
283.15 K, 35000 kPa	785.29
283.15 K, 40000 kPa	788.8
283.15 K, 45000 kPa	792.18
283.15 K, 50000 kPa	795.45
283.15 K, 55000 kPa	798.61
283.15 K, 60000 kPa	801.68
283.15 K, 65000 kPa	804.67
288.15 K, 100 kPa	750.88
288.15 K, 5000 kPa	756.01
288.15 K, 10000 kPa	760.78
288.15 K, 15000 kPa	765.26
288.15 K, 20000 kPa	769.53
288.15 K, 25000 kPa	773.58
288.15 K, 30000 kPa	777.48
288.15 K, 35000 kPa	781.19
288.15 K, 40000 kPa	784.79
288.15 K, 45000 kPa	788.24
288.15 K, 50000 kPa	791.57
288.15 K, 55000 kPa	794.8
288.15 K, 60000 kPa	797.94
288.15 K, 65000 kPa	800.98
293.15 K, 100 kPa	745.85
293.15 K, 5000 kPa	751.18
293.15 K, 10000 kPa	756.08
293.15 K, 15000 kPa	760.71
293.15 K, 20000 kPa	765.09
293.15 K, 25000 kPa	769.27
293.15 K, 30000 kPa	773.26
293.15 K, 35000 kPa	777.09
293.15 K, 40000 kPa	780.75
293.15 K, 45000 kPa	784.3
293.15 K, 50000 kPa	787.7
293.15 K, 55000 kPa	791
293.15 K, 60000 kPa	794.21
293.15 K, 65000 kPa	797.33
298.15 K, 100 kPa	740.78
298.15 K, 5000 kPa	746.29
298.15 K, 10000 kPa	751.36
298.15 K, 15000 kPa	756.15
298.15 K, 20000 kPa	760.68
298.15 K, 25000 kPa	764.97
298.15 K, 30000 kPa	769.08
298.15 K, 35000 kPa	772.99
298.15 K, 40000 kPa	776.76
298.15 K, 45000 kPa	780.38
298.15 K, 50000 kPa	783.87
298.15 K, 55000 kPa	787.24
298.15 K, 60000 kPa	790.51
298.15 K, 65000 kPa	793.65
303.15 K, 100 kPa	735.68
303.15 K, 5000 kPa	741.39
303.15 K, 10000 kPa	746.66
303.15 K, 15000 kPa	751.6
303.15 K, 20000 kPa	756.25
303.15 K, 25000 kPa	760.68
303.15 K, 30000 kPa	764.89
303.15 K, 35000 kPa	768.9
303.15 K, 40000 kPa	772.76
303.15 K, 45000 kPa	776.46
303.15 K, 50000 kPa	780.03
303.15 K, 55000 kPa	783.46
303.15 K, 60000 kPa	786.77
303.15 K, 65000 kPa	790
308.15 K, 100 kPa	730.53
308.15 K, 5000 kPa	736.43
308.15 K, 10000 kPa	741.88
308.15 K, 15000 kPa	746.98
308.15 K, 20000 kPa	751.8
308.15 K, 25000 kPa	756.35
308.15 K, 30000 kPa	760.67
308.15 K, 35000 kPa	764.79
308.15 K, 40000 kPa	768.74
308.15 K, 45000 kPa	772.53
308.15 K, 50000 kPa	776.18
308.15 K, 55000 kPa	779.69
308.15 K, 60000 kPa	783.07
308.15 K, 65000 kPa	786.36
313.15 K, 100 kPa	725.34
313.15 K, 5000 kPa	731.47
313.15 K, 10000 kPa	737.11
313.15 K, 15000 kPa	742.4
313.15 K, 20000 kPa	747.36
313.15 K, 25000 kPa	752.04
313.15 K, 30000 kPa	756.48
313.15 K, 35000 kPa	760.7
313.15 K, 40000 kPa	764.74
313.15 K, 45000 kPa	768.63
313.15 K, 50000 kPa	772.34
313.15 K, 55000 kPa	775.93
313.15 K, 60000 kPa	779.39
313.15 K, 65000 kPa	782.73
318.15 K, 100 kPa	720.1
318.15 K, 5000 kPa	726.46
318.15 K, 10000 kPa	732.32
318.15 K, 15000 kPa	737.77
318.15 K, 20000 kPa	742.89
318.15 K, 25000 kPa	747.69
318.15 K, 30000 kPa	752.27
318.15 K, 35000 kPa	756.62
318.15 K, 40000 kPa	760.76
318.15 K, 45000 kPa	764.73
318.15 K, 50000 kPa	768.51
318.15 K, 55000 kPa	772.16
318.15 K, 60000 kPa	775.71
318.15 K, 65000 kPa	779.13
323.15 K, 100 kPa	714.8
323.15 K, 5000 kPa	721.41
323.15 K, 10000 kPa	727.49
323.15 K, 15000 kPa	733.12
323.15 K, 20000 kPa	738.42
323.15 K, 25000 kPa	743.37
323.15 K, 30000 kPa	748.07
323.15 K, 35000 kPa	752.53
323.15 K, 40000 kPa	756.76
323.15 K, 45000 kPa	760.83
323.15 K, 50000 kPa	764.7
323.15 K, 55000 kPa	768.43
323.15 K, 60000 kPa	772.05
323.15 K, 65000 kPa	775.54
328.15 K, 100 kPa	709.45
328.15 K, 5000 kPa	716.32
328.15 K, 10000 kPa	722.64
328.15 K, 15000 kPa	728.5
328.15 K, 20000 kPa	733.93
328.15 K, 25000 kPa	739.05
328.15 K, 30000 kPa	743.83
328.15 K, 35000 kPa	748.41
328.15 K, 40000 kPa	752.76
328.15 K, 45000 kPa	756.92
328.15 K, 50000 kPa	760.91
328.15 K, 55000 kPa	764.72
328.15 K, 60000 kPa	768.39
328.15 K, 65000 kPa	771.91
333.15 K, 100 kPa	704.04
333.15 K, 5000 kPa	711.19
333.15 K, 10000 kPa	717.74
333.15 K, 15000 kPa	723.77
333.15 K, 20000 kPa	729.38
333.15 K, 25000 kPa	734.64
333.15 K, 30000 kPa	739.61
333.15 K, 35000 kPa	744.31
333.15 K, 40000 kPa	748.78
333.15 K, 45000 kPa	753.01
333.15 K, 50000 kPa	757.06
333.15 K, 55000 kPa	760.97
333.15 K, 60000 kPa	764.71
333.15 K, 65000 kPa	768.34
